In patent US8754242B2, “Herbicides” (Syngenta Crop Protection LLC, priority 2007, dated 2014):

Legend:
Format in all cases: in vivo
[1] = test system: Echinochloa crus-galli (ECHCG); test: Test Example 1 pre-emergence herbicidal activity; conditions: Echinochloa crus-galli, 480 h, rate 250 g/ha, evaluated 20 days later, read-out: Pre-emergence activity ECHCG (100=total damage to plant; 0=no damage to plant)
Experimental: (§1) Monocotyledonous and dicotyledonous test plants were sown in standard soil in pots. After cultivation for one day (pre-emergence) or after 10 days cultivation (post-emergence) under controlled conditions in a glasshouse, the plants were sprayed with an aqueous spray solution derived from the formulation of the technical active ingredient in 0.6 ml acetone and 45 ml formulation solution containing 10.6% Emulsogen EL (Registry number 61791-12-6), 42.2% N-methylpyrrolidone, 42.2% dipropylene glycol monomethyl ether (Registry number 34590-94-8) and 0.2% X-77 (Registry number 11097-66-8). The test plants were then grown in a greenhouse under optimum conditions until, 15 days later for post-emergence and 20 days for pre-emergence, the test was evaluated (100=total damage to plant; 0=no damage to plant).
(§2) Alopecurus myosuroides (ALOMY), Avena fatua (AVEFA), Lolium perenne (LOLPE), Setaria faberi (SETFA), Digitaria sanguinalis (DIGSA), Echinochloa crus-galli (ECHCG)

[2] = test system: Lolium perenne (LOLPE); test: Test Example 1 pre-emergence herbicidal activity; conditions: Lolium perenne, 480 h, rate 250 g/ha, evaluated 20 days later, read-out: Pre-emergence activity LOLPE (100=total damage to plant; 0=no damage to plant)
Experimental: as §1, §2

[3] = test system: Setaria faberi (SETFA); test: Test Example 1 pre-emergence herbicidal activity; conditions: Setaria faberi, 480 h, rate 250 g/ha, evaluated 20 days later, read-out: Pre-emergence activity SETFA (100=total damage to plant; 0=no damage to plant)
Experimental: as §1, §2

[4] = test system: Avena fatua (AVEFA); test: Test Example 1 pre-emergence herbicidal activity; conditions: Avena fatua, 480 h, rate 250 g/ha, evaluated 20 days later, read-out: Pre-emergence activity AVEFA (100=total damage to plant; 0=no damage to plant)
Experimental: as §1, §2

[5] = test system: Digitaria sanguinalis (DIGSA); test: Test Example 1 pre-emergence herbicidal activity; conditions: Digitaria sanguinalis, 480 h, rate 250 g/ha, evaluated 20 days later, read-out: Pre-emergence activity DIGSA (100=total damage to plant; 0=no damage to plant)
Experimental: as §1, §2

[6] = test system: Alopecurus myosuroides (ALOMY); test: Test Example 1 pre-emergence herbicidal activity; conditions: Alopecurus myosuroides, 480 h, rate 250 g/ha, evaluated 20 days later, read-out: Pre-emergence activity ALOMY (100=total damage to plant; 0=no damage to plant)
Experimental: as §1, §2

[7] = test system: Echinochloa crus-galli (ECHCG); test: Test Example 1 post-emergence herbicidal activity; conditions: 360 h, rate 125 g/ha, evaluated 15 days later, read-out: Post-emergence activity ECHCG (100=total damage to plant; 0=no damage to plant)
Experimental: as §1, §2

[8] = test system: Lolium perenne (LOLPE); test: Test Example 1 post-emergence herbicidal activity; conditions: 360 h, rate 125 g/ha, evaluated 15 days later, read-out: Post-emergence activity LOLPE (100=total damage to plant; 0=no damage to plant)
Experimental: as §1, §2

[9] = test system: Setaria faberi (SETFA); test: Test Example 1 post-emergence herbicidal activity; conditions: 360 h, rate 125 g/ha, evaluated 15 days later, read-out: Post-emergence activity SETFA (100=total damage to plant; 0=no damage to plant)
Experimental: as §1, §2

[10] = test system: Avena fatua (AVEFA); test: Test Example 1 post-emergence herbicidal activity; conditions: 360 h, rate 125 g/ha, evaluated 15 days later, read-out: Post-emergence activity AVEFA (100=total damage to plant; 0=no damage to plant)
Experimental: as §1, §2

[11] = test system: Digitaria sanguinalis (DIGSA); test: Test Example 1 post-emergence herbicidal activity; conditions: 360 h, rate 125 g/ha, evaluated 15 days later, read-out: Post-emergence activity DIGSA (100=total damage to plant; 0=no damage to plant)
Experimental: as §1, §2

[12] = test system: Alopecurus myosuroides (ALOMY); test: Test Example 1 post-emergence herbicidal activity; conditions: 360 h, rate 125 g/ha, evaluated 15 days later, read-out: Post-emergence activity ALOMY (100=total damage to plant; 0=no damage to plant)
Experimental: as §1, §2

| SMILES | pest or weed control at 250 g/ha [1] | pest or weed control at 250 g/ha [2] | pest or weed control at 250 g/ha [3] | pest or weed control at 250 g/ha [4] | pest or weed control at 250 g/ha [5] | pest or weed control at 250 g/ha [6] | pest or weed control at 125 g/ha [7] | pest or weed control at 125 g/ha [8] | pest or weed control at 125 g/ha [9] | pest or weed control at 125 g/ha [10] | pest or weed control at 125 g/ha [11] | pest or weed control at 125 g/ha [12] |
| --- | --- | --- | --- | --- | --- | --- | --- | --- | --- | --- | --- | --- |
| Cc1cc(C)c(C2=C(O)[C@H]3[C@@H](C2=O)[C@@H]2C=C[C@@]3(C(C)O)O2)c(C)c1 (mixture of isomers) [Example T39] | 30% | 30% | 40% | 20% | 30% | 10% | 70% | 0% | 60% | 20% | 70% | 10% |
| C#CCOC(=O)OC1=C(c2c(C)cc(C)cc2C)C(=O)[C@@H]2[C@H]1[C@H]1CC[C@@H]2O1 (racemic) [Example P3] | 100% | 100% | 90% | 100% | 90% | 100% | 100% | 100% | 80% | 90% | 70% | 100% |
| Cc1cc(C)c(C2=C(OC(=O)OC(C)C)[C@H]3[C@@H](C2=O)[C@@H]2CC[C@H]3O2)c(C)c1 (racemic) [Example P4] | 90% | 100% | 70% | 100% | 90% | 100% | 100% | 100% | 90% | 90% | 80% | 100% |
| Cc1cc(C)c(C2=C(OC(=O)C3CC3)[C@H]3[C@@H](C2=O)[C@@H]2CC[C@H]3O2)c(C)c1 (racemic) [Example P5] | 90% | 100% | 90% | 100% | 100% | 100% | 100% | 100% | 80% | 90% | 60% | 100% |
| CCc1cc(C)cc(CC)c1C1=C(OC(=O)C(C)(C)C)[C@H]2[C@@H](C1=O)[C@@H]1CC[C@H]2O1 (racemic) [Example P14] | 100% | 100% | 100% | 100% | 100% | 100% | 100% | 90% | 100% | 90% | 100% | 90% |
| CC#CCOC(=O)OC1=C(c2c(CC)cc(C)cc2CC)C(=O)[C@@H]2[C@H]1[C@H]1CC[C@@H]2O1 (racemic) [Example P15] | 100% | 90% | 100% | 90% | 100% | 80% | 100% | 90% | 80% | 90% | 80% | 100% |
| CCc1cc(C)cc(CC)c1C1=C(OC(=O)C2CCCCC2)[C@H]2[C@@H](C1=O)[C@@H]1CC[C@H]2O1 (racemic) [Example P17] | 100% | 100% | 100% | 90% | 100% | 90% | 100% | 100% | 100% | 90% | 100% | 100% |
| CCOC(=O)OC1=C(c2c(CC)cc(C)cc2CC)C(=O)[C@@H]2[C@H]1[C@H]1CC[C@@H]2O1 (racemic) [Example P18, carbonic acid (1RS,2SR,6RS,7SR)-5-oxo-4-(2,6-diethyl-4-methylphenyl)-10-oxatricyclo[5.2.1.0^2,6]-dec-3-en-3-yl ester ethyl ester] | 100% | 100% | 100% | 100% | 100% | 100% | 100% | 80% | 70% | 50% | 70% | 90% |
| CCCCCCC(=O)OC1=C(c2c(CC)cc(C)cc2CC)C(=O)[C@@H]2[C@H]1[C@H]1CC[C@@H]2O1 (racemic) [Example P20] | 100% | 100% | 100% | 80% | 100% | 100% | 100% | 100% | 90% | 100% | 80% | 100% |
| CCc1cc(C)cc(CC)c1C1=C(OC(=O)C2CC2)[C@H]2[C@@H](C1=O)[C@@H]1CC[C@H]2O1 (racemic) [Example P21] | 100% | 100% | 100% | 100% | 100% | 100% | 100% | 100% | 100% | 100% | 80% | 90% |
| CCC(=O)OC1=C(c2c(CC)cc(C)cc2CC)C(=O)[C@@H]2[C@H]1[C@H]1CC[C@@H]2O1 (racemic) [Example P22] | 100% | 100% | 100% | 100% | 100% | 100% | 100% | 100% | 100% | 100% | 100% | 100% |
| C#CCOC(=O)OC1=C(c2c(CC)cc(C)cc2CC)C(=O)[C@@H]2[C@H]1[C@H]1CC[C@@H]2O1 (racemic) [Example P25] | 100% | 100% | 100% | 100% | 100% | 100% | 100% | 100% | 80% | 90% | 80% | 100% |
